Assay results: BigSolDB 2.1

Cc1nc(C)c(C)nc1C
solubility (mole fraction)
Details | in acetone | in acetonitrile | in ethanol | in ethyl acetate | in isopropanol | in methanol | in methyl acetate | in n-butanol | in n-propanol
273.15 K | 0.0459 | 0.0279 | 0.0644 | 0.0958 | 0.0534 | 0.111 | 0.0758 | 0.106 | 0.102
278.15 K | 0.0592 | 0.034 | 0.0775 | 0.113 | 0.0702 | 0.119 | 0.094 | 0.126 | 0.114
283.15 K | 0.0712 | 0.0405 | 0.0911 | 0.136 | 0.0814 | 0.143 | 0.112 | 0.152 | 0.138
288.15 K | 0.0869 | 0.0503 | 0.11 | 0.16 | 0.0998 | 0.162 | 0.133 | 0.175 | 0.158
293.15 K | 0.106 | 0.0587 | 0.128 | 0.181 | 0.115 | 0.194 | 0.156 | 0.205 | 0.185
298.15 K | 0.132 | 0.0743 | 0.162 | 0.212 | 0.142 | 0.222 | 0.189 | 0.235 | 0.213
303.15 K | 0.156 | 0.0888 | 0.186 | 0.244 | 0.166 | 0.262 | 0.216 | 0.262 | 0.245
308.15 K | 0.185 | 0.115 | 0.216 | 0.284 | 0.196 | 0.296 | 0.254 | 0.302 | 0.3
313.15 K | 0.209 | 0.147 | 0.255 | 0.34 | 0.249 | 0.342 | 0.291 | 0.351 | 0.347
